Source: US20240238300A1, “TREATMENT METHODS FOR SUBJECTS WITH CANCER HAVING AN ABERRATION IN EGFR AND/OR HER2” (TAIHO PHARMACEUTICAL CO., LTD., priority 2021, published 2024)
Like-named read-outs stand apart in the source and are kept apart here.

What was measured:
[1] = biological target: BLK (Homo sapiens, UniProt P51451); experiment: panel enzyme assay of 257 kinases; assay type: biochemical; details: read-out: % Inhibition by Compound (1) at 1000 nmol/L
Description: (§1) To investigate further kinase selectivity of Compound (1), a panel enzyme assay of 257 kinases for Compound (1) was conducted.

[2] = biological target: BMX (Homo sapiens, UniProt P51813); experiment: panel enzyme assay of 257 kinases; assay type: biochemical; details: read-out: % Inhibition by Compound (1) at 1000 nmol/L
Chain of BMX (P51813 whole entry, species assumed): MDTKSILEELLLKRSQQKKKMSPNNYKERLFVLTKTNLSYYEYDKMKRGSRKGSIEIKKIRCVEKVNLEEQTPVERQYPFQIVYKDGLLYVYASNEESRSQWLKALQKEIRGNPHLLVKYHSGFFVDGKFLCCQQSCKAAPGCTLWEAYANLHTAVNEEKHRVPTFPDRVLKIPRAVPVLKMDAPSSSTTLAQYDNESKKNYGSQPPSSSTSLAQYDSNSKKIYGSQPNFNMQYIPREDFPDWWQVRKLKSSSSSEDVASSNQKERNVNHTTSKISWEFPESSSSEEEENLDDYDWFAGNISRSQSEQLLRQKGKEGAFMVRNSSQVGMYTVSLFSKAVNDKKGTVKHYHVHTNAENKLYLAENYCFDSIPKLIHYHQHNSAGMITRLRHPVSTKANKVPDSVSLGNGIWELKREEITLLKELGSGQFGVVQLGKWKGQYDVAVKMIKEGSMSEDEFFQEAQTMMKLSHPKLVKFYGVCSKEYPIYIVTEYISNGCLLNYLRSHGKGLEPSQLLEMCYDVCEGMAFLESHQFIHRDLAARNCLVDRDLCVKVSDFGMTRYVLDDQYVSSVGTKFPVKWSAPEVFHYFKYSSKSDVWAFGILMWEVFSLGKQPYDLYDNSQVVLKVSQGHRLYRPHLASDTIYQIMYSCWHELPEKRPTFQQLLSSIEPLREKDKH
Description: as §1

[3] = biological target: BTK (Homo sapiens, UniProt Q06187); experiment: panel enzyme assay of 257 kinases; assay type: biochemical; details: read-out: % Inhibition by Compound (1) at 1000 nmol/L
Description: as §1

[4] = biological target: DDR1 (Homo sapiens, UniProt Q08345); experiment: panel enzyme assay of 257 kinases; assay type: biochemical; details: read-out: % Inhibition by Compound (1) at 1000 nmol/L
Description: as §1

[5] = biological target: EGFR (Homo sapiens, UniProt P00533); experiment: panel enzyme assay of 257 kinases; assay type: biochemical; details: read-out: % Inhibition by Compound (1) at 1000 nmol/L
Description: as §1

[6] = biological target: EPHA6 (Homo sapiens, UniProt Q9UF33); experiment: panel enzyme assay of 257 kinases; assay type: biochemical; details: read-out: % Inhibition by Compound (1) at 1000 nmol/L
Chain of EPHA6 (Q9UF33 23-1036, species assumed): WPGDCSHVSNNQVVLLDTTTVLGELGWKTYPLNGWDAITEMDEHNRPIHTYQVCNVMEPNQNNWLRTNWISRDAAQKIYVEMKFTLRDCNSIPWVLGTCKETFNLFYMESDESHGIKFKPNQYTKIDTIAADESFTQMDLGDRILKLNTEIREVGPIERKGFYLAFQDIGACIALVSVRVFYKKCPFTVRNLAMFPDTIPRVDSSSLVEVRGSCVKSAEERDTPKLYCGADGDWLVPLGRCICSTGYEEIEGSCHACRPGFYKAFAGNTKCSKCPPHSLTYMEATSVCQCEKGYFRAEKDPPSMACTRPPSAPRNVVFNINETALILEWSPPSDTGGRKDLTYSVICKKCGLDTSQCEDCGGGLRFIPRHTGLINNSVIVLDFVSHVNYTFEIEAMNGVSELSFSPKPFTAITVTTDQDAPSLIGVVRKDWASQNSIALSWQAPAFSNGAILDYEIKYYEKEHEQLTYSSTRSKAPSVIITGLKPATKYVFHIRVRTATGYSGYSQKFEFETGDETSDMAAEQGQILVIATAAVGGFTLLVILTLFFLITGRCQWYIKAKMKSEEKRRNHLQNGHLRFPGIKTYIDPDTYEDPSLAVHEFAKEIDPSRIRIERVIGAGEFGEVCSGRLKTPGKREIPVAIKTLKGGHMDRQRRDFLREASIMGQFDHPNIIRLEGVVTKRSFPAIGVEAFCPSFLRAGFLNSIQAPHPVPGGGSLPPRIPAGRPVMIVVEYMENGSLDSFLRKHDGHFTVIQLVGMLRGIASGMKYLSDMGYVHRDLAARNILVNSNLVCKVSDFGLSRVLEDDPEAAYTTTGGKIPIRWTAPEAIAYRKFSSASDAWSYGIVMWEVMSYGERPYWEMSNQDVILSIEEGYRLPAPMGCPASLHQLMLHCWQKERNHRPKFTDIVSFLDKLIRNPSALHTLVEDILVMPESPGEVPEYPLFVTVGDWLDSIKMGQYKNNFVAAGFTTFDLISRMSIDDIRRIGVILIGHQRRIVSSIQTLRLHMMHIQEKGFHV
Description: as §1

[7] = biological target: FLT4 (Homo sapiens, UniProt P35916); experiment: panel enzyme assay of 257 kinases; assay type: biochemical; details: read-out: % Inhibition by Compound (1) at 1000 nmol/L
Description: as §1

[8] = biological target: HER2 (Homo sapiens, UniProt P04626); experiment: panel enzyme assay of 257 kinases; assay type: biochemical; details: read-out: % Inhibition by Compound (1) at 1000 nmol/L
Description: as §1

[9] = biological target: HER4 (Homo sapiens, UniProt Q15303); experiment: panel enzyme assay of 257 kinases; assay type: biochemical; details: read-out: % Inhibition by Compound (1) at 1000 nmol/L
Description: as §1

[10] = biological target: ITK (Homo sapiens, UniProt Q08881); experiment: panel enzyme assay of 257 kinases; assay type: biochemical; details: read-out: % Inhibition by Compound (1) at 1000 nmol/L
Description: as §1

[11] = biological target: JAK3 (Homo sapiens, UniProt P52333); experiment: panel enzyme assay of 257 kinases; assay type: biochemical; details: read-out: % Inhibition by Compound (1) at 1000 nmol/L
Chain of JAK3 (P52333 whole entry, species assumed): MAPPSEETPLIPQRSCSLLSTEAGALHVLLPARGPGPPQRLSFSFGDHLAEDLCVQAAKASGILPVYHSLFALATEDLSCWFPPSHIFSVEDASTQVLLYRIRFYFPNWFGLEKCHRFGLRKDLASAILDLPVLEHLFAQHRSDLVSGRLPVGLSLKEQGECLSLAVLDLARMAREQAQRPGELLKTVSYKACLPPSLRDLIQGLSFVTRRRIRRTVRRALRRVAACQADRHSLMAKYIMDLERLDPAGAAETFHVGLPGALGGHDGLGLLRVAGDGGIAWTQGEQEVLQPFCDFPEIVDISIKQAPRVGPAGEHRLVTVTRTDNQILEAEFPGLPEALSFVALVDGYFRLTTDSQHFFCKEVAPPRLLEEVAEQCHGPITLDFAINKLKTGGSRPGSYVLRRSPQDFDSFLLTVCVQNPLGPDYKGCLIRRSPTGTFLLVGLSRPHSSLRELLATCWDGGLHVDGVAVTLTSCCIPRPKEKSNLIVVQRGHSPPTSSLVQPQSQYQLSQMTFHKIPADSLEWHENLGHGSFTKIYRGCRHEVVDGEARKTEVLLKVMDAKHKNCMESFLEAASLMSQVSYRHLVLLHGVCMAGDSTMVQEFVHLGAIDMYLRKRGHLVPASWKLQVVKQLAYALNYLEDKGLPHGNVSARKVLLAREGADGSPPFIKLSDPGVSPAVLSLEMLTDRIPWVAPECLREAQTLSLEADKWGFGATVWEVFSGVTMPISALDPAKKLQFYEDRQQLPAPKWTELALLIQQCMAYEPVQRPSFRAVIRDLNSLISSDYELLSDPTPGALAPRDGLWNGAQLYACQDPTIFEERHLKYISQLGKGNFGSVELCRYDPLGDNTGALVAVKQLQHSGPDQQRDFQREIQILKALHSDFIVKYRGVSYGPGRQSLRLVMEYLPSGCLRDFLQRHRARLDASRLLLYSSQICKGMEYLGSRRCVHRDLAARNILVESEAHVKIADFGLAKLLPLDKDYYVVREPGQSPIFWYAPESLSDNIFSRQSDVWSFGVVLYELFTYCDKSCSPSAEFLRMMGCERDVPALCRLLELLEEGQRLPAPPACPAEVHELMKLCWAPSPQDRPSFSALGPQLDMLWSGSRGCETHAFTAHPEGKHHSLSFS
Description: as §1

[12] = biological target: KDR (Homo sapiens, UniProt P35968); experiment: panel enzyme assay of 257 kinases; assay type: biochemical; details: read-out: % Inhibition by Compound (1) at 1000 nmol/L
Description: as §1

[13] = biological target: TEC (Homo sapiens, UniProt P42680); experiment: panel enzyme assay of 257 kinases; assay type: biochemical; details: read-out: % Inhibition by Compound (1) at 1000 nmol/L
Chain of TEC (P42680 whole entry): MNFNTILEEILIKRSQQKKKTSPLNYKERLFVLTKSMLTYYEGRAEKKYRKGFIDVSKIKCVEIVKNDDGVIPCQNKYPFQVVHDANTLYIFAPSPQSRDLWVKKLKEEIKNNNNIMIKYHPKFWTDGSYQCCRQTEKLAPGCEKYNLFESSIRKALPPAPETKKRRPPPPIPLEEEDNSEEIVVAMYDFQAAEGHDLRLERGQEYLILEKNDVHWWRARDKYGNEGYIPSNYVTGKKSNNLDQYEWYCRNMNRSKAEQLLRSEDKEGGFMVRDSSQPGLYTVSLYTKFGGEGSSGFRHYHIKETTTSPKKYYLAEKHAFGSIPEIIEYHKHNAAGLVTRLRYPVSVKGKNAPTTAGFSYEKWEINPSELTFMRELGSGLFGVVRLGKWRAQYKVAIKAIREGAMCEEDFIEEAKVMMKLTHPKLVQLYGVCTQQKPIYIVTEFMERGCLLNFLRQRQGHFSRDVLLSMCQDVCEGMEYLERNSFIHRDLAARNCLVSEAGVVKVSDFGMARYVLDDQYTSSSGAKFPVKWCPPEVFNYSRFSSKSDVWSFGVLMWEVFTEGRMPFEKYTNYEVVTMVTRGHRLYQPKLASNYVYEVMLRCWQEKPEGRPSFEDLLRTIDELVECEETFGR
Description: as §1

[14] = biological target: TXK (Homo sapiens, UniProt P42681); experiment: panel enzyme assay of 257 kinases; assay type: biochemical; details: read-out: % Inhibition by Compound (1) at 1000 nmol/L
Chain of TXK (P42681 whole entry, species assumed): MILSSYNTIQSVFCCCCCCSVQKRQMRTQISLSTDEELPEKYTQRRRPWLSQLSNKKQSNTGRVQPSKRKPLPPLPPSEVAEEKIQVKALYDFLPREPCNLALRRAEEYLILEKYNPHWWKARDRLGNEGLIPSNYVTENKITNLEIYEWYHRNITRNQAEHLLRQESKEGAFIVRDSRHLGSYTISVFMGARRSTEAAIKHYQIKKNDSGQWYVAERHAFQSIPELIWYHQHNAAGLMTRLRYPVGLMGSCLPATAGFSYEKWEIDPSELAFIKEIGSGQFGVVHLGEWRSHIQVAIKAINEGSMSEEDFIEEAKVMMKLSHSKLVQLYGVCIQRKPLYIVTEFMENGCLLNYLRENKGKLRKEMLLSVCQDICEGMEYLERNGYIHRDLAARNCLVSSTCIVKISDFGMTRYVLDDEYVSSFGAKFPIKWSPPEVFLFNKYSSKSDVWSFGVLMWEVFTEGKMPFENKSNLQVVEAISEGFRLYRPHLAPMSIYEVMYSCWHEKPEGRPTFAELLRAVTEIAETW
Description: as §1

[15] = system: 257 kinases; experiment: panel enzyme assay of 257 kinases, whole panel; assay type: biochemical; details: 1000 nmol/L
Description: as §1

[16] = brain penetrability after single oral administration; assay type: in vivo, male nude mice; details: male, nude, mouse
Description: Brain penetrability of Compound (1) in nude mice. The brain penetrability of Compound (1) was confirmed by Kp,brain values at 0.5 and 1 hour in male nude mice following a single oral administration at 50 mg/kg (Table 6). Based on the brain penetrability study and brain and plasma protein binding studies, Kp,uu,brain was calculated to be 0.26±0.05 for 0.5 hour and 0.13±0.03 for 1 hour.

[17] = system: MDA-MB-175VII cells (DOC4-NRG1 fusion); experiment: growth inhibitory effect in NRG1 fusion-driven cancer cell line (GI50); assay type: cell-based; details: Homo sapiens, mean of 3-4 independent experiments
Description: GI50 values were also determined for currently approved EGFR/HER2 tyrosine kinase inhibitors: afatinib, osimertinib, tucatinib, lapatinib, and neratinib, and one investigational drug (poziotinib). Mean values were determined from 3-4 independent experiments.

[18] = biological target: T1, human BCRP (Homo sapiens, UniProt Q9UNQ0); details: not told
T1 sequence (Q9UNQ0 1-655): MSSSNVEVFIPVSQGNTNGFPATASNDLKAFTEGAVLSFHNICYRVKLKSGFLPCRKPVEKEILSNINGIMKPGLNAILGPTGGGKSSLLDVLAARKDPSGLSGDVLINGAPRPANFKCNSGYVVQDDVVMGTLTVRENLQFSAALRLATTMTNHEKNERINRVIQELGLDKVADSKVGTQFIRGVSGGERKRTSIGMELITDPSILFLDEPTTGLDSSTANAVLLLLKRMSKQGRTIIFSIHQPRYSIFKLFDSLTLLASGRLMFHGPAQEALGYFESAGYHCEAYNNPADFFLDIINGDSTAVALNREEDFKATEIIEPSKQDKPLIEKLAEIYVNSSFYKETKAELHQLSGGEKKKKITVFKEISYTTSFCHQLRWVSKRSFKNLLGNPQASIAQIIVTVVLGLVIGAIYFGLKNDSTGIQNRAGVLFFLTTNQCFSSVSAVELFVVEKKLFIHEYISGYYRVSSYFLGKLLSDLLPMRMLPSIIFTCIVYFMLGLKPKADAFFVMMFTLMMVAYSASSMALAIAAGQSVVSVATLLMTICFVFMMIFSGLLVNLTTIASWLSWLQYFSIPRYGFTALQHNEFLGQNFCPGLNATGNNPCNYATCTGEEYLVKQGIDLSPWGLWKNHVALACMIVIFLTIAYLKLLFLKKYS

[19] = biological target: T1, human BCRP; experiment: substrate susceptibility on human BCRP, bidirectional transcellular transport, BCRP/MDCK II cells; assay type: in vitro ADME; parameters: expressed in transfected cells; host or cells: MDCK II (canine kidney) cells expressing human BCRP; parent MDCK II as control
Description: Substrate susceptibility of Compound (1) on human BCRP. Time-dependence of the bidirectional transcellular transport of 0.3, 0.5, 1, 3, and 30 μmol/L Compound (1) across human BCRP/Madin-Darby canine kidney II (MDCK II) cells and parent/MDCK II cells was analyzed.

Chain of BLK (P51451 whole entry, species assumed): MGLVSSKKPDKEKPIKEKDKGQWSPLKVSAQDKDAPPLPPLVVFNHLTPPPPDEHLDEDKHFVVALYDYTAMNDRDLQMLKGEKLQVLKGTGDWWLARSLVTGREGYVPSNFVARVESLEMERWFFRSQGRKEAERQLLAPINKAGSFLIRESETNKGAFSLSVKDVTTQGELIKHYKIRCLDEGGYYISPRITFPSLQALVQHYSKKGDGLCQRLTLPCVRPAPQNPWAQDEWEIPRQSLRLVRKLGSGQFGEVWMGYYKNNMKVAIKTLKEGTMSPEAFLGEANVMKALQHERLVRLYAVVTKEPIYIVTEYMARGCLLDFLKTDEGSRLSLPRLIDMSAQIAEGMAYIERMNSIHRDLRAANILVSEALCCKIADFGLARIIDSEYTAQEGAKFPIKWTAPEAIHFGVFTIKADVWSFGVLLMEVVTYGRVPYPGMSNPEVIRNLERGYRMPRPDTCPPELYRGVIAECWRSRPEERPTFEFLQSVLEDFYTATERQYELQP

Compound: C=CC(=O)N1C[C@H](n2c(C#CC3CC3)c(C(=O)N[C@H](C)c3ccccc3)c3c(N)ncnc32)C[C@@H]1C [Compound (1), 7-((3R,5S)-1-acryloyl-5-methylpyrrolidin-3-yl)-4-amino-6-(cyclopropylethynyl)-N—((R)-1-phenylethyl)-7H-pyrrolo[2,3-d]pyrimidine-5-carboxamide]
- inhibition at 1 µM [1]: 64.7%
- inhibition at 1 µM [2]: 98.9%
- inhibition at 1 µM [3]: 80%
- inhibition at 1 µM [4]: 86%
- inhibition at 1 µM [5]: 98.3%
- inhibition at 1 µM [6]: 72.9%
- inhibition at 1 µM [7]: 80.4%
- inhibition at 1 µM [8]: 100%
- inhibition at 1 µM [9]: 98.4%
- inhibition at 1 µM [10]: 56.4%
- inhibition at 1 µM [11]: 99.2%
- inhibition at 1 µM [12]: 67.2%
- inhibition at 1 µM [13]: 81.7%
- inhibition at 1 µM [14]: 89.4%
- number of the 257 kinases tested with ≥50% inhibition of activity [15]: 14
- inhibition of activity for the other 243 kinases ([15]; weak inhibition or no inhibitory effect): < 50%
- Kp uu at 0.5 h ([16]; brain and plasma (unbound), 0.5 hr after single oral 50 mg/kg): 0.26 ± 0.05
- Kp uu at 1 h ([16]; brain and plasma (unbound), 1 hr after single oral 50 mg/kg): 0.13 ± 0.03
- Kp at 0.5 h ([16]; brain, 0.5 hr after single oral 50 mg/kg): 0.415 ± 0.08
- concentration at 0.5 h ([16]; brain, 0.5 hr after single oral 50 mg/kg, read-out: Brain Concentration): 3590 ± 600 ng/g
- Kp at 1 h ([16]; brain, 1 hr after single oral 50 mg/kg): 0.206 ± 0.042
- concentration at 1 h ([16]; brain, 1 hr after single oral 50 mg/kg, read-out: Brain Concentration): 1290 ± 440 ng/g
- concentration at 0.5 h ([16]; plasma, 0.5 hr after single oral 50 mg/kg, read-out: Plasma Concentration): 8.72 ± 0.65 µg/mL
- concentration at 1 h ([16]; plasma, 1 hr after single oral 50 mg/kg, read-out: Plasma Concentration): 6.17 ± 0.91 µg/mL
- GI50 [17]: 1.2 ± 0.3 nM
- net flux ratio of [^3H]prazosin ([18]; 0.01 μmol/L): 4.6±0.4
- net flux ratio of [^3H]prazosin ([18]; 0.1 μmol/L): 4.0±0.3
- net flux ratio of [^3H]prazosin ([18]; 0.5 μmol/L): 2.7±0.2
- net flux ratio of [^3H]prazosin ([18]; 1 μmol/L): 1.8±0.2
- net flux ratio of [^3H]prazosin ([18]; 5 μmol/L): 1.3±0.2
- net flux ratio of [^3H]prazosin ([18]; 10 μmol/L): 1.1±0.1
- concentration at which transport via human BCRP is saturable [19]: > 1 µM
- net flux ratio ([19]; 0.3 μmol/L Compound (1), 4 hours): 1.5±0.6
- net flux ratio ([19]; 0.5 μmol/L Compound (1) with 10 μmol/L Ko143, 3 hours): 1.2±0.2
- net flux ratio ([19]; 0.5 μmol/L Compound (1) with 10 μmol/L Ko143, 4 hours): 1.2±0.2
- net flux ratio ([19]; 0.5 μmol/L Compound (1), 2 hours): 1.9±0.9
- net flux ratio ([19]; 0.5 μmol/L Compound (1), 3 hours): 3.0±0.9
- net flux ratio ([19]; 0.5 μmol/L Compound (1), 4 hours): 2.7±0.8
- net flux ratio ([19]; 1 μmol/L Compound (1) with 10 μmol/L Ko143, 4 hours): 1.4±0.2
- net flux ratio ([19]; 1 μmol/L Compound (1), 2 hours): 2.3±0.7
- net flux ratio ([19]; 1 μmol/L Compound (1), 3 hours): 1.8±0.4
- net flux ratio ([19]; 1 μmol/L Compound (1), 4 hours): 2.2±0.7
- net flux ratio ([19]; 3 μmol/L Compound (1), 2 hours): 2.0±0.3
- net flux ratio ([19]; 3 μmol/L Compound (1), 3 hours): 1.6±0.3
- net flux ratio ([19]; 3 μmol/L Compound (1), 4 hours): 1.5±0.2
- net flux ratio ([19]; 30 μmol/L Compound (1), 2 hours): 1.4±0.3
- net flux ratio ([19]; 30 μmol/L Compound (1), 3 hours): 1.1±0.1
- net flux ratio ([19]; 30 μmol/L Compound (1), 4 hours): 1.2±0.1
- substrate susceptibility on human BCRP ([19]; criterion net flux ratio exceeding 2): substrate of BCRP
